Among the data in patent publication US20180207099A1, “NON-[…] FOR THE MIC[…] DIGOXIN” (priority 2015, published 2018) are particle size values, retold here.

A short description of the data set: Particle size of micronized digoxin obtained by the non-mechanical process. It counts as physicochemical. The settings on record: for >90% of the particles (number distribution); digoxin precipitated per Example 1. The source says:
The digoxin thus obtained has a high purity and is ready to be incorporated in the usual pharmaceutical formulations, typically tablets; it has particle size of 20-30 micrometers for at least 90% of the particles, and is exempt from degradation products, as evident by a wholly neutral colour, and further confirmable analytically. In the present invention, the particle size distribution is meant as “number distribution” (thus not “volume distribution” or “mass distribution”); accordingly, any expressions of the type “x-y micrometers for at least m % of the particles” describes a particle distribution characterized in that at least m % of the number of particles making up the product have a size comprised between x and y micrometers; relevant particle size values can be measured by usual techniques, including laser diffraction, dynamic light scattering, dynamic image analysis, suitably equipped with data processing systems. The obtained digoxin can be formulated with common excipients. Suitable excipients are cellulose products like microcrystalline cellulose, cellulose ethers like methylcellulose, ethylcellulose, hydroxyethylcellulose, crosslinked polymers (e.g. polyplasdone XL, hyaluronic acid or alginic acid cross-linked with urea), gums from plants, etc. Common diluents like mannitol, fructose, as well as compression aids like magnesium stearate, can also be used. […]

On to `C[C@H]1O[C@@H](O[C@H]2[C@@H](O)C[C@H](O[C@H]3[C@@H](O)C[C@H](O[C@H]4CC[C@@]5(C)[C@H](CC[C@@H]6[C@@H]5C[C@@H](O)[C@]5(C)[C@@H](C7=CC(=O)OC7)CC[C@]65O)C4)O[C@@H]3C)O[C@@H]2C)C[C@H](O)[C@@H]1O` [digoxin], for which the particle size is 20-30 micrometers.
